Source: patent US6960574B2, “Antagonists of RF-amide neuropeptides” (University of Florida, priority 2002, dated 2005)
Peptide text beside a SMILES is read from it. * marks the point of attachment. Dansyl = CN(C)c1cccc2c(S(=O)(=O)*)cccc12

test system: receptor labeled by the radioiodinated analogue of 1 (4, [125I]-YLFQPQRF-NH2); neuropeptide FF receptor; assay: Competitive radioligand binding against 4 ([125I]Y8F-amide); details: mixture-based positional scanning; difference from averaged radioligand displacement of whole library (0); about 80 a.u. = 10-fold change in Ki
Source text: Additionally, three-dimensional (3-D) molecular models of the known smaller-size neuropeptide FF antagonists 3 and 3a were constructed and their low-energy conformations were obtained in the AMBER force-field [Weiner, et al., J. Comput. Chem. 1986, 7, […].] by molecular dynamics calculations involving simulated annealing. A semi-empirical quantum chemical method with the PM3 parameterization [Stewart, J. Comput. Chem. 1989, 10, 209-220.] was used for the final geometry optimization. […] At least one of the rings in domain B is aromatic. No similarity between 3 and 3a outside these domains were apparent; therefore, the simultaneous presence of A and B domains in the structure of neuropeptide FF (1) antagonists is critical to the invention. Apparently, structural subunits (domain C) outside domains A and B should function in a cooperative manner in directing the pharmacophores into proper geometric positions when improved binding to the cognate receptor is to be obtained, which is associated with the improvement of the desired pharmacological effect. An approach involving mixture-based synthetic combinatorial libraries and positional scanning [(a) Houghten, et al., J. Med Chem. 1999, 42, 3743-3778.] was adopted in the search for preferred structural motifs in domain C that assist in achieving this objective in this invention. To allow for the use of 3 as a reference in this process, the guadinino group (A) was incorporated as part of an L-2-amino-5-{[amino(imino)methyl]amino}pentanoyl (arginyl, R, Arg) residue and 5-dimethylamino-1-naphthalenesulphonyl (dansyl) was chosen to form B (However, it must be emphasized that both R and dansyl are replaceable with moieties that bestow A and B domain attributes described in the invention).
Upon screening for residues to replace the glutamine of 3, serine (S) was the only building block in this position that increased the displacement of 4 in the radioligand-binding assay. Therefore, motifs present in dansyl-Gly-Ser-Arg-NH2, dansyl-Gly-Gln-Arg-NH2, dansyl-Gln-Ser-Arg-NH2, and dansyl-Gln-Gln-Arg-NH2 were chosen based on their affinity to the cognate receptor for further consideration as primary templates when designing the domain C of the compounds described in the invention herein. […]

Row | Relative Binding Index (RBI) [a.u.] | Compound
1 | −2 | CN(C)c1cccc2c(S(=O)(=O)N[C@@H](CC(=O)O)C(=O)N3CCC[C@H]3C(=O)N[C@@H](CCCNC(=N)N)C(N)=O)cccc12 [Dansyl-DPR-amide] (Dansyl-Asp-Pro-Arg-NH2)
2 | 8 | CN(C)c1cccc2c(S(=O)(=O)N[C@@H](CC(=O)O)C(=O)N[C@@H](CCC(N)=O)C(=O)N[C@@H](CCCNC(=N)N)C(N)=O)cccc12 [Dansyl-DQR-amide] (Dansyl-Asp-Gln-Arg-NH2)
3 | −7 | CN(C)c1cccc2c(S(=O)(=O)N[C@@H](CC(=O)O)C(=O)N[C@@H](CCCNC(=N)N)C(=O)N[C@@H](CCCNC(=N)N)C(N)=O)cccc12 [Dansyl-DRR-amide] (Dansyl-Asp-Arg-Arg-NH2)
4 | 15 | CN(C)c1cccc2c(S(=O)(=O)N[C@@H](CC(=O)O)C(=O)N[C@@H](CO)C(=O)N[C@@H](CCCNC(=N)N)C(N)=O)cccc12 [Dansyl-DSR-amide] (Dansyl-Asp-Ser-Arg-NH2)
5 | 0 | C[C@@H](O)[C@H](NC(=O)[C@H](CC(=O)O)NS(=O)(=O)c1cccc2c(N(C)C)cccc12)C(=O)N[C@@H](CCCNC(=N)N)C(N)=O [Dansyl-DTR-amide] (Dansyl-Asp-Thr-Arg-NH2)
6 | −10 | CC(C)[C@H](NC(=O)[C@H](CC(=O)O)NS(=O)(=O)c1cccc2c(N(C)C)cccc12)C(=O)N[C@@H](CCCNC(=N)N)C(N)=O [Dansyl-DVR-amide] (Dansyl-Asp-Val-Arg-NH2)
7 | 3 | CN(C)c1cccc2c(S(=O)(=O)N[C@@H](CC(=O)O)C(=O)N[C@@H](Cc3c[nH]c4ccccc34)C(=O)N[C@@H](CCCNC(=N)N)C(N)=O)cccc12 [Dansyl-DWR-amide] (Dansyl-Asp-Trp-Arg-NH2)
8 | −7 | CN(C)c1cccc2c(S(=O)(=O)N[C@@H](CC(=O)O)C(=O)N[C@@H](Cc3ccc(O)cc3)C(=O)N[C@@H](CCCNC(=N)N)C(N)=O)cccc12 [Dansyl-DYR-amide] (Dansyl-Asp-Tyr-Arg-NH2)
9 | −32 | C[C@H](NC(=O)[C@H](CCC(=O)O)NS(=O)(=O)c1cccc2c(N(C)C)cccc12)C(=O)N[C@@H](CCCNC(=N)N)C(N)=O [Dansyl-EAR-amide] (Dansyl-Glu-Ala-Arg-NH2)
10 | −1 | CN(C)c1cccc2c(S(=O)(=O)N[C@@H](CCC(=O)O)C(=O)N[C@@H](CC(=O)O)C(=O)N[C@@H](CCCNC(=N)N)C(N)=O)cccc12 [Dansyl-EDR-amide] (Dansyl-Glu-Asp-Arg-NH2)
11 | 17 | CN(C)c1cccc2c(S(=O)(=O)N[C@@H](CCC(=O)O)C(=O)N[C@@H](CCC(=O)O)C(=O)N[C@@H](CCCNC(=N)N)C(N)=O)cccc12 [Dansyl-EER-amide] (Dansyl-Glu-Glu-Arg-NH2)
12 | 15 | CN(C)c1cccc2c(S(=O)(=O)N[C@@H](CCC(=O)O)C(=O)N[C@@H](Cc3ccccc3)C(=O)N[C@@H](CCCNC(=N)N)C(N)=O)cccc12 [Dansyl-EFR-amide] (Dansyl-Glu-Phe-Arg-NH2)
13 | 22 | CN(C)c1cccc2c(S(=O)(=O)N[C@@H](CCC(=O)O)C(=O)NCC(=O)N[C@@H](CCCNC(=N)N)C(N)=O)cccc12 [Dansyl-EGR-amide] (Dansyl-Glu-Gly-Arg-NH2)
14 | 11 | CN(C)c1cccc2c(S(=O)(=O)N[C@@H](CCC(=O)O)C(=O)N[C@@H](Cc3cnc[nH]3)C(=O)N[C@@H](CCCNC(=N)N)C(N)=O)cccc12 [Dansyl-EHR-amide] (Dansyl-Glu-His-Arg-NH2)
15 | 23 | CC[C@H](C)[C@H](NC(=O)[C@H](CCC(=O)O)NS(=O)(=O)c1cccc2c(N(C)C)cccc12)C(=O)N[C@@H](CCCNC(=N)N)C(N)=O [Dansyl-EIR-amide] (Dansyl-Glu-Ile-Arg-NH2)
16 | 14 | CN(C)c1cccc2c(S(=O)(=O)N[C@@H](CCC(=O)O)C(=O)N[C@@H](CCCCN)C(=O)N[C@@H](CCCNC(=N)N)C(N)=O)cccc12 [Dansyl-EKR-amide] (Dansyl-Glu-Lys-Arg-NH2)
17 | 8 | CC(C)C[C@H](NC(=O)[C@H](CCC(=O)O)NS(=O)(=O)c1cccc2c(N(C)C)cccc12)C(=O)N[C@@H](CCCNC(=N)N)C(N)=O [Dansyl-ELR-amide] (Dansyl-Glu-Leu-Arg-NH2)
18 | 17 | CSCC[C@H](NC(=O)[C@H](CCC(=O)O)NS(=O)(=O)c1cccc2c(N(C)C)cccc12)C(=O)N[C@@H](CCCNC(=N)N)C(N)=O [Dansyl-EMR-amide] (Dansyl-Glu-Met-Arg-NH2)
19 | 18 | CN(C)c1cccc2c(S(=O)(=O)N[C@@H](CCC(=O)O)C(=O)N[C@@H](CC(N)=O)C(=O)N[C@@H](CCCNC(=N)N)C(N)=O)cccc12 [Dansyl-ENR-amide] (Dansyl-Glu-Asn-Arg-NH2)
20 | 20 | CN(C)c1cccc2c(S(=O)(=O)N[C@@H](CCC(=O)O)C(=O)N3CCC[C@H]3C(=O)N[C@@H](CCCNC(=N)N)C(N)=O)cccc12 [Dansyl-EPR-amide] (Dansyl-Glu-Pro-Arg-NH2)
21 | 30 | CN(C)c1cccc2c(S(=O)(=O)N[C@@H](CCC(=O)O)C(=O)N[C@@H](CCC(N)=O)C(=O)N[C@@H](CCCNC(=N)N)C(N)=O)cccc12 [Dansyl-EQR-amide] (Dansyl-Glu-Gln-Arg-NH2)
22 | 15 | CN(C)c1cccc2c(S(=O)(=O)N[C@@H](CCC(=O)O)C(=O)N[C@@H](CCCNC(=N)N)C(=O)N[C@@H](CCCNC(=N)N)C(N)=O)cccc12 [Dansyl-ERR-amide] (Dansyl-Glu-Arg-Arg-NH2)
23 | 37 | CN(C)c1cccc2c(S(=O)(=O)N[C@@H](CCC(=O)O)C(=O)N[C@@H](CO)C(=O)N[C@@H](CCCNC(=N)N)C(N)=O)cccc12 [Dansyl-ESR-amide] (Dansyl-Glu-Ser-Arg-NH2)
24 | 22 | CC(O)C(NC(=O)C(CCC(=O)O)NS(=O)(=O)c1cccc2c(N(C)C)cccc12)C(=O)NC(CCCNC(=N)N)C(N)=O (stereo not drawn) [Dansyl-ETR-amide] (Dansyl-Glu-Thr-Arg-NH2; configuration not given here)
25 | 12 | CC(C)[C@H](NC(=O)[C@H](CCC(=O)O)NS(=O)(=O)c1cccc2c(N(C)C)cccc12)C(=O)N[C@@H](CCCNC(=N)N)C(N)=O [Dansyl-EVR-amide] (Dansyl-Glu-Val-Arg-NH2)
26 | 25 | CN(C)c1cccc2c(S(=O)(=O)N[C@@H](CCC(=O)O)C(=O)N[C@@H](Cc3c[nH]c4ccccc34)C(=O)N[C@@H](CCCNC(=N)N)C(N)=O)cccc12 [Dansyl-EWR-amide] (Dansyl-Glu-Trp-Arg-NH2)
27 | 15 | CN(C)c1cccc2c(S(=O)(=O)N[C@@H](CCC(=O)O)C(=O)N[C@@H](Cc3ccc(O)cc3)C(=O)N[C@@H](CCCNC(=N)N)C(N)=O)cccc12 [Dansyl-EYR-amide] (Dansyl-Glu-Tyr-Arg-NH2)
28 | −40 | C[C@H](NC(=O)[C@H](Cc1ccccc1)NS(=O)(=O)c1cccc2c(N(C)C)cccc12)C(=O)N[C@@H](CCCNC(=N)N)C(N)=O [Dansyl-FAR-amide] (Dansyl-Phe-Ala-Arg-NH2)
29 | −9 | CN(C)c1cccc2c(S(=O)(=O)N[C@@H](Cc3ccccc3)C(=O)N[C@@H](CC(=O)O)C(=O)N[C@@H](CCCNC(=N)N)C(N)=O)cccc12 [Dansyl-FDR-amide] (Dansyl-Phe-Asp-Arg-NH2)
